Data from patent publication US20130252890A1, “6,7-DIHYDRO-5H-BENZO[7]ANNULENE DERIVATIVES, PROCESS FOR PREPARATION THEREOF, PHARMACEUTICAL PREPARATIONS COMPRISING THEM, AND THE USE THEREOF FOR PRODUCTION OF MEDICAMENTS” (BAYER INTELLECTUAL PROPERTY GMBH, priority 2010, published 2013).

How the values were obtained:
ERα protein = biological target: T1, ERα protein (Homo sapiens, UniProt P03372); experiment: Effect on stability of ERα protein in T47D breast cancer cells (ELISA); format: cell-based; conditions: 24 hours, ER protein by ELISA
T1 construct: These cells express the ER in functional form; endogenous in cells; host or cells: T47D breast cancer cells
T1 sequence (P03372 1-595): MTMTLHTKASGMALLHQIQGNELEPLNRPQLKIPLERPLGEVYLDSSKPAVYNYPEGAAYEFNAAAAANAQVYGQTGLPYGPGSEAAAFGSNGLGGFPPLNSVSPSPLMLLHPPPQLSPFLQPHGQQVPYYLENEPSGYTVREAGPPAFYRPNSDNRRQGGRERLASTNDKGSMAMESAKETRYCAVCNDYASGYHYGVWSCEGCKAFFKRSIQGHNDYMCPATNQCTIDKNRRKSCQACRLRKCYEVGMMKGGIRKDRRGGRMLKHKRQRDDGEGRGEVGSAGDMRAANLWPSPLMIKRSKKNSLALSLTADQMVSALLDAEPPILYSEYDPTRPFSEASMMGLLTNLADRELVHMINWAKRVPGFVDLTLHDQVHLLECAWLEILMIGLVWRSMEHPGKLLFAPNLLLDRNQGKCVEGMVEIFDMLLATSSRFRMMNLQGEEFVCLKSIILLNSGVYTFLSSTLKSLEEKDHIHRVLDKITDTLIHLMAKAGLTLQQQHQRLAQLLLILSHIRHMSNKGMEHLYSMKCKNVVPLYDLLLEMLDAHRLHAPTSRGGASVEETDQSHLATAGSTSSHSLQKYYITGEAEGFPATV
Method: As well as inhibition of the transcriptional activity of the ER, anti-oestrogens influence the expression level of the ER in the target tissues through stimulation of the proteolytic degradation of the ER. In comparison with an ER-E2 complex, the ER bound in a complex with the pure anti-oestrogen fulvestrant has a substantially shorter half-life.
The effect of the claimed pharmacological compounds on the stability of the ER was analysed in T47D breast cancer cells (see Table 1, column Standardized ER-destabilization [%]). These cells express the ER in functional form. The cells are incubated for 24 hours with the claimed compounds at a concentration of 1 μM. After lysis of the cells, the content of ER protein was determined by ELISA. […] Compounds with ER content below 30% are classified as destabilizing.
As described, the claimed pharmacological substances were investigated for their action on the stability of the ERα protein (see Table 1).

[1] = tested on: ovarian estradiol synthesis; experiment: Stimulation of ovarian oestrogen synthesis (HPG axis) in intact adult rats; format: in vivo, rat; conditions: hormonally intact adult rats, daily for 10 days; quotient of peripheral estradiol values after and before treatment
Text: The clinical use both of pure anti-oestrogens and of various SERMs for the treatment of premenopausal women is limited by their property of stimulating the ovaries through activation of the hypothalamic-pituitary-gonadal axis (HPG axis), which leads to the increase in peripheral estradiol levels (Palomba, S., Orio, F., Jr., Morelli, M., Russo, T., Pellicano, M., Zupi, E., Lombardi, G., Nappi, C., Panici, P. L., and Zullo, F. (2002). Raloxifene administration in premenopausal women with uterine leiomyomas: a pilot study. J Clin Endocrinol Metab 87, 3603-3608). This stimulation of the HPG axis is associated with penetration of the blood-brain barrier and penetration of the brain. To investigate the ovary-stimulating properties of the claimed pharmacological compounds, hormonally intact adult rats were treated with the substances daily for a period of 10 days. The study end point is the quotient of peripheral estradiol values after and before treatment.

oestrogen receptor (ER) = biological target: T2, oestrogen receptor (ER) (Homo sapiens, UniProt P03372); experiment: Anti-oestrogenic action in MVLN cells (inhibition of estradiol-induced luciferase); format: cell-based; conditions: inhibition of estradiol-induced luciferase signal, value of Ex. 44 is a mean value, read-out: Antioestrogenic action in vitro: MVLN transactivation antagonism IC50
T2 construct: These MVLN cells express, along with the functional oestrogen receptor (ER), a reporter construct; endogenous in cells; host or cells: MVLN cells (MCF7 derivative carrying a luciferase reporter construct)
T2 sequence (P03372 1-595): T1 sequence (P03372 1-595)
In short: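 Inhibition of estradiol-driven luciferase expression was measured with compounds co-applied alongside oestrogen. Reporter system: MCF7-derived MVLN cells expressing endogenous functional ER and an ER-responsive luciferase construct.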

uterus [2] = experiment: Oestrogenic action - uterus growth test in the infantile rat; format: in vivo; conditions: sc, 72 h, s.c. 3 days, relative to E2 0.3 μg/animal, read-out: maximum uterotropic action (% estradiol action) in the dose range from 0.03 to 3 mg/kg; for Emax at 0.3 mg/kg: maximum at dose 0.3 mg/kg; for Emax at 0.03 mg/kg: maximum at dose 0.03 mg/kg
Method: Both the uterus and the vagina show a weight increase that is dependent on oestrogenic efficacy, in infantile animals when they are treated with a substance with oestrogenic action. In the uterus, under oestrogenic action there is also proliferation and increase in height of the luminal epithelium.
Immature, intact rats (n=5-6 animals/group; body weight 40-50 g) receive the substance s.c. for 3 days (d1-d3). On day 4 (d4) the animals are killed with CO2. The uteri are removed and weighed. For histological assessment, a piece of uterus, preferably a uterine horn, is fixed in formaldehyde and embedded in paraffin. The stimulation of the organ weights (relative to mg/100 g body weight) and the height of the epithelium are shown as percentage stimulation in comparison with the reference compound 17β-estradiol (E2). (Substitution dose of E2 0.3 μg/animal).

uterus [3] = experiment: Anti-uterus growth test in the adult rat; conditions: sc, 72 h; ovariectomized adult rat, s.c. 3 days with 1.5 μg/kg/day 17β-estradiol; inhibition of uterus growth; value of 44 is a mean of two measurements; read-out: anti-oestrogenic activity in vivo in % at a dose of 0.3 mg/kg (rat)
Text: The uterus of oestrogen-substituted rats can be used as a test model for detecting a direct action of substances with anti-oestrogenic properties. The parameter of oestrogenic action is estradiol-induced uterus growth in rats, which is inhibited by simultaneous administration of a substance with anti-oestrogenic action. The experimental animals (n=5-6 animals/group) were ovariectomized before the start of the test, to rule out the influence of endogenous oestrogens. After a phase of 6 to 10 days, the test substances are administered s.c. on 3 consecutive days (d1-d3) in combination with a substitution dose of 1.5 μg/kg/day 17β-estradiol. 17β-estradiol alone serves as positive control, and the excipients serve as negative control. On day 4 (d4) the animals are killed, and the uteri and vaginae are removed and weighed. The organ weights are converted to mg/100 g body weight, then the mean value and the standard deviation are calculated for each dosage. The inhibition of uterus growth induced by 17β-estradiol is shown as percentage inhibition.

[4] = tested on: peripheral cholesterol level; experiment: Hepatic oestrogenicity in the ovariectomized adult rat (plasma cholesterol); format: in vivo; conditions: ovariectomized adult rats, s.c. daily for 6 days; cholesterol day 0 vs day 8
Text: Substances with oestrogenic action influence the synthesis of various plasma proteins, of coagulation factors and fibrinolytic factors in the liver. […] In the present investigations, lowering of the peripheral cholesterol level is used as a surrogate parameter for analysis of the hepatic oestrogenicity of the claimed pharmacological compounds. Adult ovariectomized rats were, after a pause of 6-10 days, treated daily for 6 days with the substances by subcutaneous application. The plasma cholesterol levels were determined and compared before and after the respective treatment.

endometriosis lesions = experiment: Endometriosis model in the rat (autologous transplantation); format: in vivo; conditions: rat
Text: Using intact adult female rats, experimental endometriosis was induced in the autologous transplantation model based on Vernon M. W. and Wilson E. A., 1985 (Fertil Steril. 44(5):684-694). A uterine horn was removed from animals that were exclusively in oestrus, the myometrium was separated from the endometrium and biopsies with dimensions of 4×4 mm were obtained from the endometrial tissue. Two uterine fragments were transplanted onto the inside of the abdominal wall (peritoneum) and two uterine fragments were transplanted onto the mesenterium of the same animal (4 fragments per animal). After 21 days the animals with endometriosis were laparotomized, and the size of the transplants was determined. The animals were treated after laparotomy and then daily in the morning with the stated dosages of the selected claimed substances by subcutaneous administration. Finally, 28 days after the start of treatment (49 days after transplantation), all the animals were laparotomized again and the size of the lesion was measured and was correlated with the size before the start of treatment.

In the case of C[C@]12CC[C@@H]3c4ccc(O)cc4C[C@@H](CCCCCCCCC[S+]([O-])CCCC(F)(F)C(F)(F)F)[C@H]3[C@@H]1CC[C@@H]2O (stereo partly shown) [fulvestrant, reference compound], the “relative ERα content (% ER)” value (ERα protein) is reported as 0%.

In the case of CN(CCCCCCC1=C(c2ccc(F)cc2)CCCc2cc(O)ccc21)CCCCS(=O)(=O)C1CCC(F)(F)CC1 [Example 122, 9-{6-[{4-[(4,4-difluorocyclohexyl)sulphonyl]butyl}(methyl)amino]hexyl}-8-(4-fluorophenyl)-6,7-dihydro-5H-benzo[7]annulen-3-ol], the “Stimulation of ovarian oestrogen synthesis: factor at a dose of 3 mg/kg rat” value (“Stimulation” for short) [1] is reported as 2.4, the IC50 (oestrogen receptor (ER)) is reported as 0.006 µM and the Emax at 0.3 mg/kg (uterus [2]) is reported as 7%. The inhibition in vivo at 0.3 mg/kg (uterus [3]) was 52%.

With CN(CCCCCCC1=C(c2ccc(F)cc2)CCCc2cc(O)ccc21)CCCS(=O)(=O)CCCC(F)(F)C(F)(F)F [Example 115, 8-(4-fluorophenyl)-9-[6-(methyl{3-[(4,4,5,5,5-pentafluoropentyl)sulphonyl]propyl}amino)hexyl]-6,7-dihydro-5H-benzo[7]annulen-3-ol] the “Stimulation” value [1] was 2.7, the “hepatic oestrogenicity: lowering of the peripheral cholesterol level” value [4] was “only observed at high dosage” and the “dosage with significant reduction in sizes of lesions” value (endometriosis lesions; 28 days of treatment, 115 tested 0.1-1 mg/kg, 44 tested 0.3-10 mg/kg) was 1 mg/kg. The “reduction of lesion size” value (endometriosis lesions; s.c. daily, 4 weeks (FIG. 2A, FIG. 2B)) was “significant dose-dependent reduction of lesion size”, the IC50 (oestrogen receptor (ER)) was 0.013 µM and the Emax at 0.03 mg/kg (uterus [2]) was 3%. For the same compound, the inhibition in vivo at 0.3 mg/kg (uterus [3]) was 50%.

In the case of CN(CCCCCCC1=C(c2ccc(F)cc2)CCCc2cc(O)ccc21)CCCS(=O)(=O)CC1CCC(F)(F)CC1 [Example 123, 9-{6-[(3-{[(4,4-difluorocyclohexyl)methyl]sulphonyl}propyl)(methyl)amino]hexyl}-8-(4-fluorophenyl)-6,7-dihydro-5H-benzo[7]annulen-3-ol], the “Stimulation” value [1] is reported as 2.5, the IC50 (oestrogen receptor (ER)) is reported as 0.013 µM and the Emax at 0.3 mg/kg (uterus [2]) is reported as 8%. The inhibition in vivo at 0.3 mg/kg (uterus [3]) was 56%.

Compound CN(CCCCCCC1=C(c2ccc(F)cc2)CCCc2cc(O)ccc21)CCCCS(=O)(=O)CCC(F)(F)F [Example 51, 8-(4-Fluorophenyl)-9-[6-(methyl{4-[(3,3,3-trifluoropropyl)sulphonyl]butyl}amino)hexyl]-6,7-dihydro-5H-benzo[7]annulen-3-ol] has an IC50 (oestrogen receptor (ER)) of 0.03 µM, an Emax at 0.1 mg/kg (uterus [2]; maximum at dose 0.1 mg/kg) of 22% and an inhibition in vivo at 0.3 mg/kg (uterus [3]) of 59%.

In the case of CN(CCCCCCC1=C(c2ccc(F)cc2)CCCc2cc(O)ccc21)CCCS(=O)(=O)CCCC(F)(F)F [Example 117, 8-(4-fluorophenyl)-9-[6-(methyl{3-[(4,4,4-trifluorobutyl)sulphonyl]propyl}amino)hexyl]-6,7-dihydro-5H-benzo[7]annulen-3-ol], the “Stimulation” value [1] is reported as 2.1, the IC50 (oestrogen receptor (ER)) is reported as 0.018 µM and the Emax at 0.3 mg/kg (uterus [2]) is reported as 18%. The inhibition in vivo at 0.3 mg/kg (uterus [3]) was 65%.

In the case of CN(CCCCCCC1=C(c2ccc(F)cc2)CCCc2cc(O)ccc21)CCCS(=O)(=O)CCCCC(F)(F)F [Example 80, 8-(4-Fluorophenyl)-9-[6-(methyl{3-[(5,5,5-trifluoropentyl)sulphonyl]propyl}amino)hexyl]-6,7-dihydro-5H-benzo[7]annulen-3-ol], the “Stimulation” value [1] is reported as 2.3, the IC50 (oestrogen receptor (ER)) is reported as 0.008 µM and the inhibition in vivo at 0.3 mg/kg (uterus [3]) is reported as 59%.

With CN(CCCCCCC1=C(c2ccc(F)cc2)CCCc2cc(O)ccc21)CCC[S+]([O-])CCCC(F)(F)C(F)(F)F (stereo not shown) [Example 118, 8-(4-fluorophenyl)-9-[6-(methyl{3-[(4,4,5,5,5-pentafluoropentyl)sulphinyl]propyl}amino)hexyl]-6,7-dihydro-5H-benzo[7]annulen-3-ol] the “Stimulation” value [1] was 2.3, the “hepatic oestrogenicity: lowering of the peripheral cholesterol level” value [4] was “only observed at high dosage” and the IC50 (oestrogen receptor (ER)) was 0.009 µM. For the same compound, the Emax at 0.03 mg/kg (uterus [2]) was 8% and the inhibition in vivo at 0.3 mg/kg (uterus [3]) was 78%.

CN(CCCCCCC1=C(c2ccc(F)cc2)CCCc2cc(O)ccc21)CCCCS(=O)(=O)CCCC(F)(F)C(F)(F)F [Example 114, 8-(4-fluorophenyl)-9-[6-(methyl{4-[(4,4,5,5,5-pentafluoropentyl)sulphonyl]butyl}amino)hexyl]-6,7-dihydro-5H-benzo[7]annulen-3-ol] was tested, and the “Stimulation” value [1] was 1.4, the IC50 (oestrogen receptor (ER)) was 0.01 µM and the inhibition in vivo at 0.3 mg/kg (uterus [3]) was 49%.
